Data on one molecule can be found in patent US20220106596A1, “A METHOD OF GENE EDITING” (University of Washington, priority 2019, published 2022).

Experiment [1] relates to HT-1080 cells with LHSN63D530 provirus and HPRT exon3D4. Description: neo gene editing in HT-1080 cells infected with AAV2-HSN5′ (G418 selection), effect of emetine. The class given is cell-based, human. An excerpt: (§1) The murine leukemia virus (MLV) vector LHSN63Δ53O contains a nonfunctional neomycin phosphotransferase target gene (neo) with a 53-bp deletion at nucleotide 63 of its open reading frame, a hygromycin phosphotransferase gene (hph) for selection, and a plasmid replication origin for recovering the target sites.
(§2) In some embodiments, a cell is gene edited using the HT-1080 (human fibrosarcoma cells) gene editing assay. This method uses HT-1080 neo/HPRT editing cells transduced with LHSN63Δ53O. HT-1080 cells contain an integrated copy of an MLV LHSN63Δ530 targeting locus and a 4 by deletion in the single copy, X-linked HPRT gene at exon 3. The cells are transduced with AAV2-HSN5′ and cultured in G418 to identify neo gene-edited cells. The AAV2-HSN5′ gene targeting vector contains sequences homologous to MLV-LHSN63Δ53O with a truncated neo gene that lacks the 53 by deletion. Alternatively, HT-1080 cells are transduced with AAV2-HPe3 targeting vector and selected with HAT medium to identify HPRT gene-edited cells (See Russell et al., 2008, Human Gene Therapy, 19: 907-914 and Deyle et al., 2014, Nature Structural & Molecular Biol., 21: 969-975). Targeted clones are expanded as a polyclonal population. Untargeted control cells are generated by transducing HT-1080 cells with the MLV vector LHSNO, which is identical to LHSN63Δ53O except that it contains a functional neo gene.
(§3) To determine the effect of emetine on gene editing, experiments were performed using human HT-1080 cells with LHSN63Δ530 provirus and HPRT exon 3Δ4, infected with AAV2-HSN5′ or AAV2-HPe3. Replicate samples of cells were treated under the following conditions: • AAV (MOI 2×10^4) alone for 24 hours; • 0.125 μM emetine for 8 hours followed by the addition of AAV (MOI 2×10^4) and incubation for 24 hours; • 0.25 μM emetine for 24 hours followed by the addition of AAV (MOI 2×10^4) and incubation for 24 hours; • 0.25 μM emetine for 24 hours followed by the addition of AAV (MOI 2×10^4) and incubation with AAV for 24 hours; • 0.25 μM emetine in the presence of AAV (MOI 2×10^4) for 24 hours; • AAV (MOI-2×10^4) for 8 hours followed by the addition of 0.25 μM emetine and incubation with emetine for 23 hours; • AAV (MOI-2×10^4) for 24 hours followed by the addition of 0.25 μM emetine and incubation with emetine for 8 hours; • AAV (MOI-2×10^4) for 8 hours followed by the addition of emetine (0.25 μM) and incubation with emetine for 18 hours, removal of emetine, followed by addition of a second dosage of emetine (0.25 μM) and incubation for 16 hours; or • AAV (MOI 2×10^4) for 24 hours followed by the addition of emetine (0.25 μM) and incubation for 7 hours, removal of emetine, followed by addition of a second dosage of emetine (0.25 μM) for 2 hours.
(§4) For each experiment, 2×10^4 cells were seeded and cultured in the presence of 4×10^8 AAV. All experiments were performed in DMEM+10% FBS+pen/strep. Emetine dihydrochloride hydrate: E2375 (Sigma) was prepared in water and sterilized by filtration on 0.22 uM filter.

Experiment [2] shares this test system. Description: HPRT gene editing in HT-1080 cells infected with AAV2-HPe3 (HAT selection), effect of emetine. The class given is cell-based, human.
Text: as §1, §2, §3, §4

For experiment [3], the system named is mouse Hepa1-6 hepatoma cells. Description: Gene editing (albumin knock-in, GFP expression by flow cytometry) with AAVDJ-mAlb-GFP. The class given is cell-based. Particulars: 1000 nM emetine. The protocol: To determine the effect of emetine on gene editing, experiments were performed using mouse Hepa1-6 hepatoma cells using the vector AAVDJ-mAlb-GFP. Gene editing in the presence of this vector results in an albumin knock-in with resulting expression of green fluorescent protein (GFP).
On day 0, 100,000 cells were plated in 1.5 ml DMEM with 10% FBS, 100 units/mL penicillin and 100 μg/mL streptomycin. On day 1, cells were transduced with AAVDJ-mAlb-GFP (multiplicity of (MOI)—50,000) by removing the media and adding to the cells 1.5 ml of fresh media (DMEM with 10% FBS, 100 units/mL penicillin, 100 μg/mL streptomycin) containing the desired MOI of the AAVDJ-mAlb-GFP virus. For 100,000 cells, to achieve an MOI of […] were added.
On day 2, fresh medium (1.5 ml of DMEM with 10% FBS, 100 units/mL penicillin, 100 μg/mL streptomycin) with or without emetine, was added. Replicate samples were treated with no emetine, or with 30 nM emetine, 100 nM emetine or 1000 nM emetine. A control sample lacked AAV. On day 3, the media was removed and 1.5 ml of DMEM with 10% FBS, 100 units/mL penicillin, 100 μg/mL streptomycin was added to the cells. Expression of GFP was measured on days 6, 7 and 10.
Flow cytometry was used to measure GFP expression. On the day of the assay (days 6, 7 and 10) cells were trypsinized and the resulting cell pellet was resuspended in 500 μL of FACS buffer (DPBS (Dulbecco's Phosphate Buffered Saline) without Ca2+, Mg2+, and supplemented with 2% FBS, 1 mM EDTA). The resulting cell suspension was analyzed for GFP positive cells on the BD FACScanto II. For samples treated with no AAV, 0 nM emetine, 30 nM emetine, and 100 nM emetine, 100,000 cells were analyzed, and for samples treated with 1000 nM emetine, 70,000 cells were analyzed.

Another experiment concerns mouse liver. As to the kind of experiment: In vivo gene editing of mouse liver with AAVDj-mALB-luciferase (bioluminescence imaging). On the set-up: species or system C57BL/6 mice. Particulars: emetine 5 mg/kg intraperitoneal, days 1-5, FIG. 3. As to the method:
To determine the effect of emetine on gene editing in vivo, experiments were performed using C57BL/6 mice.
[…]. On day 0, 5 mice (Group I), were given AAVDj-mALB-luciferase vector at an amount of 3×10^11 vg/mouse by retro orbital injection. Gene editing of the AAVDj-mALB-luciferase vector results in an albumin locus knock-in and luciferase expression. 5 mice (Group 2) were injected with AAVDj-mALB-luciferase vector, at an amount of 3×10^11 vg/mouse by retro orbital injection, and given emetine in DPBS, at a concentration of 5 mg/kg, by intraperitoneal injection. 5 mice (Group 3) were injected only with emetine at a concentration of 5 mg/kg, by intraperitoneal injection.
Emetine was administered to Groups 2 and 3 on days 1-5. On days 8, […] and 22, in vivo imaging in the presence of 15 mg/kg D-luciferin, administered by intraperitoneal injection, was performed to determine the occurrence of editing. Following D-luciferin administration, the mice were anesthetized with isoflurane and placed in an IVIS imager and the peak bioluminescence was recorded (Gornalusse et al., 2017, Nature Biotech, 35(8): 765-772). […] At days 15 and 22, a 1.6 and 1.4 fold increase, respectively, were observed.

[4] abbreviates: 0.125 μM emetine for 8 hrs before adding AAV.
The mark [5] stands for this setting: 0.25 μM emetine for 24 hrs before adding AAV.
The mark [6] stands for this setting: 0.25 μM emetine for 24 hrs before adding AAV + 24 hrs with AAV.
Setting [7] is: 0.25 μM emetine for 24 hrs with AAV.
The mark [8] stands for this setting: AAV for 8 hrs, then added 0.25 μM emetine for 23 hrs.
[9] abbreviates: AAV for 8 hrs, then added emetine for 18 hrs, then removed emetine for 8 hrs, then added emetine for 16 hrs.
The mark [10] stands for this setting: AAV for 24 hrs then with 0.25 μM emetine for 8 hrs.
[11] abbreviates: AAV for 24 hrs, then emetine for 7 hrs, then removed emetine for 16 hrs, then added emetine for 2 hrs.

As for `CC[C@H]1CN2CCc3cc(OC)c(OC)cc3[C@@H]2C[C@@H]1C[C@H]1NCCc2cc(OC)c(OC)cc21` [emetine], the “Fold increase in editing frequency due to emetine, % G4158R emetine/% G418R no emetine” value in experiment [1] (setting [4]) came to 2.40 Fold; in experiment [1] (setting [5]), 3.82 Fold; in experiment [1] (setting [6]), 6.64 Fold; in experiment [1] (setting [7]), 3.70 Fold; in experiment [1] (setting [8]), 1.96 Fold; in experiment [1] (setting [9]), 8.47 Fold. In addition, the “Fold increase in editing frequency due to emetine, % G4158R emetine/% G418R no emetine” value in experiment [1] (setting [10]) is reported as 1.94 Fold; in experiment [1] (setting [11]), 2.63 Fold. In addition, the “Fold increase in editing frequency due to emetine, % HATR/% HAR no emetine” value is 8.39 Fold in experiment [2] (setting [4]); 7.25 Fold in experiment [2] (setting [5]); 11.19 Fold in experiment [2] (setting [6]); 8.39 Fold in experiment [2] (setting [7]); 1.99 Fold in experiment [2] (setting [8]); 2.88 Fold in experiment [2] (setting [9]). Besides, the figures for the “Fold increase in editing frequency due to emetine, % HATR/% HAR no emetine” value in experiment [2] (setting [10]) and in experiment [2] (setting [11]) were 1.63 Fold and 1.56 Fold, respectively. Moreover, the “increase in expression of GFP” value worked out at 22 fold in experiment [3] (day 6, FIG. 2); 12 fold in experiment [3] (day 7, FIG. 2); 3 fold in experiment [3] (day 10, FIG. 2). Moreover, the results for the “increase in level of gene editing in vivo in mouse liver (peak bioluminescence) as compared to mice treated with AAV alone” value in the experiment on mouse liver (day 8), in the experiment with mouse liver (day 15) and with mouse liver (day 22) were 2.3 fold, 1.6 fold and 1.4 fold, respectively.
